Experimental data reported in patent US20240131028A1, “CHEMOVACCINATION AGAINST PLASMODIUM INFECTION WITH SELECTIVE PLASMEPSIN X INHIBITORS” (Merck Sharp & Dohme LLC, priority 2021, published 2024).
Where two headings read alike, the source gives them in different places.

Test system: ring stage parasites (Pf)
Assay: Parasite lactate dehydrogenase (LDH) growth assay (Parasite Assay, PfLDH Assay)
Assay type: cell-based, P. falciparum
Settings: Table 3, 72 hours growth, LDH readout, read-out: EC50

SMILES	EC50 (Plasmodium falciparum, 72 h) [nM]	EC50 [nM]
CC1(C)CC(=O)N(C[C@H]2C[C@@H]2C(=O)NC2CC(C)(C)Oc3c(C(F)(F)F)ccc(F)c32)C(=N)N1 (stereo partly shown) [Example 99]	130	
CC1(C)CC(=O)N(C[C@H]2C[C@@H]2C(=O)N[C@H]2CC(C)(C)Oc3ccc(C(F)(F)F)cc32)C(=N)N1 [Example 100]	170	
COCC[C@H]([C@H]1C[C@@H]1C(=O)N[C@H]1CC(C)(C)Oc2ccc(Cl)cc21)N1C(=N)NC(C)(C)CC1=O [Example 101]	2.9	
CC[C@@]1(C)CC(=O)N([C@H](c2cncc(F)c2)[C@H]2C[C@@H]2C(=O)N[C@@H]2c3ccccc3OCC2(C)C)C(=N)N1 [Example 102A]	0.8	
CC[C@@]1(C)CC(=O)N(C(c2cncc(F)c2)[C@H]2C[C@@H]2C(=O)N[C@@H]2c3ccccc3OCC2(C)C)C(=N)N1 (stereo partly shown) [Example 102B]	2.5	
COCC[C@H]([C@H]1C[C@@H]1C(=O)NC1CC(C)(C)Oc2c(Cl)cc(Cl)cc21)N1C(=N)NC(C)(C)CC1=O (stereo partly shown) [Example 106A]	7.4	
COCC[C@H]([C@H]1C[C@@H]1C(=O)NC1CC(C)(C)Oc2c(Cl)cc(Cl)cc21)N1C(=N)NC(C)(C)CC1=O (stereo partly shown) [Example 106B]		10
COCC[C@H]([C@H]1C[C@@H]1C(=O)N[C@H]1CC(C)(C)Oc2cccc(OC(F)(F)F)c21)N1C(=N)NC(C)(C)CC1=O [Example 107A]	2.1	
COCC[C@H]([C@H]1C[C@@H]1C(=O)N[C@@H]1CC(C)(C)Oc2cccc(OC(F)(F)F)c21)N1C(=N)NC(C)(C)CC1=O [Example 107B]	11	
COCC[C@H]([C@H]1C[C@@H]1C(=O)N[C@@H]1CC(C)(C)Oc2ccc(C(F)(F)F)cc21)N1C(=N)NC(C)(C)CC1=O [Example 110A]	21	
COCC[C@H]([C@H]1C[C@@H]1C(=O)N[C@H]1CC(C)(C)Oc2ccc(C(F)(F)F)cc21)N1C(=N)NC(C)(C)CC1=O [Example 110B]	7.2	
COCC[C@H]([C@H]1C[C@@H]1C(=O)NC1CC(C)(C)Oc2c(F)cccc21)N1C(=N)NC(C)(C)CC1=O (stereo partly shown) [Example 111A]	24	
COCC[C@H]([C@H]1C[C@@H]1C(=O)NC1CC(C)(C)Oc2c(F)cccc21)N1C(=N)NC(C)(C)CC1=O (stereo partly shown) [Example 111B]		15
COCC[C@H]([C@H]1C[C@@H]1C(=O)NC1CC(C)(C)Oc2c(Cl)cccc21)N1C(=N)NC(C)(C)CC1=O (stereo partly shown) [Example 112A]	18	
COCC[C@H]([C@H]1C[C@@H]1C(=O)NC1CC(C)(C)Oc2c(Cl)cccc21)N1C(=N)NC(C)(C)CC1=O (stereo partly shown) [Example 112B]		9.4
COCC[C@H]([C@H]1C[C@@H]1C(=O)N[C@@H]1CC(C)(C)Oc2c(F)cc(F)cc21)N1C(=N)NC(C)(C)CC1=O [Example 113A]	19	
COCC[C@H]([C@H]1C[C@@H]1C(=O)N[C@H]1CC(C)(C)Oc2c(F)cc(F)cc21)N1C(=N)NC(C)(C)CC1=O [Example 113B]	7.5	
COCC[C@H]([C@H]1C[C@@H]1C(=O)N[C@@H]1CC(C)(C)Oc2c(C(F)(F)F)ccc(F)c21)N1C(=N)NC(C)(C)CC1=O [Example 114A]	89	
COCC[C@H]([C@H]1C[C@@H]1C(=O)N[C@H]1CC(C)(C)Oc2c(C(F)(F)F)ccc(F)c21)N1C(=N)NC(C)(C)CC1=O [Example 114B]	5.1	
CC1(C)CC(=O)N([C@H](c2cccnc2)[C@H]2C[C@@H]2C(=O)N[C@@H]2CC(C)(C)Oc3c(C(F)(F)F)ccc(F)c32)C(=N)N1 [Example 115A]	6.6	
CC1(C)CC(=O)N([C@H](c2cccnc2)[C@H]2C[C@@H]2C(=O)N[C@H]2CC(C)(C)Oc3c(C(F)(F)F)ccc(F)c32)C(=N)N1 [Example 115B]	1	
COCC[C@H]([C@H]1C[C@@H]1C(=O)N[C@H]1CC(C)(C)Oc2cccc(Cl)c21)N1C(=N)NC(C)(C)CC1=O [Example 116A]	0.8	
COCC[C@H]([C@H]1C[C@@H]1C(=O)N[C@@H]1CC(C)(C)Oc2cccc(Cl)c21)N1C(=N)NC(C)(C)CC1=O [Example 116B]	18	
CC1(C)CC(=O)N(C[C@H]2C[C@@H]2C(=O)N[C@H]2CC(C)(C)Oc3cccc(OC(F)(F)F)c32)C(=N)N1 [Example 118]	63	
CC1(C)CC(=O)N(C[C@H]2C[C@@H]2C(=O)N[C@H]2CC(C)(C)Oc3cccc(Cl)c32)C(=N)N1 [Example 119]	26	
CC1(C)CC(=O)N([C@H](c2cccnc2)[C@H]2C[C@@H]2C(=O)N[C@H]2CC(C)(C)Oc3ccc(Cl)cc32)C(=N)N1 [Example 120]	1	
CC1(C)CC(=O)N([C@H](c2cccnc2)[C@H]2C[C@@H]2C(=O)NC2CC(C)(C)Oc3c(Cl)cccc32)C(=N)N1 (stereo partly shown) [Example 121A]	2.5	
CC1(C)CC(=O)N([C@H](c2cccnc2)[C@H]2C[C@@H]2C(=O)NC2CC(C)(C)Oc3c(Cl)cccc32)C(=N)N1 (stereo partly shown) [Example 121B]		2
